Reference: publication PMC11395447, “Development and Optimization of a Bromothymol Blue-Based PLA2 Assay Involving POPC-Based Self-Assemblies” (International Journal of Molecular Sciences, 2024)

Biological target: T1, PLA2-IB (Phospholipase A2 IB) (Sus scrofa, UniProt P00592)
T1 construct: gene PLA2G1B
Assay: bromothymol blue absorbance assay, Michaelis-Menten kinetics on POPC liposomes (Km)
Format: biochemical

T1 sequence (P00592 23-146): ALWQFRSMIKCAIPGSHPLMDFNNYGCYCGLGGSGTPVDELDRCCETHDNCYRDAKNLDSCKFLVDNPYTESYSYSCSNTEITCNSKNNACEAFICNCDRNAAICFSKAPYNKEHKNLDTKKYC

Substance: POPC
- Km: 12.9 µM
